Laboratory results published in patent US20250154165A1, “MULTIANTENNARY GLYCOLIPID MIMETICS” (CONSEJO SUPERIOR DE INVESTIGACIONES CIENTÍFICAS (CSIC), priority 2021, published 2025).

Legend:
Splenocytes = test: Immune-stimulating function of compounds alone (splenocytes in vitro); type: cell-based, mouse
Procedure: FIG. 6. […] Splenocytes were treated with the compounds of the invention alone to assess the immune-stimulating function of the compounds. Compounds 12, 18, 22, 27, and 29 induced significant IFNγ secretion, and compound 8 induced significant IL-4 secretion.
(§1) The whole spleen was surgically removed from a mouse and mechanically dissociated into a single cell suspension of splenocytes, which were then cultured in the complete RPMI 1640 medium (cRPMI). Human peripheral blood mononuclear cells (PBMCs) from healthy volunteers were collected from whole blood through gradient-centrifugation with Histopaque-1077 (Sigma-Aldrich).
Splenocytes were treated with the compounds of the invention alone to assess the immune-stimulating function of the compounds by measuring their ability to promote the secretions of IFN-γ and IL-4.

[1] = tested on: OVA-induced AHR mouse model; test: Suppression of OVA-induced airway inflammation in vivo (IL-13 and IL-4 in BALF and lungs); details: OVA-induced AHR experiment
Procedure: FIG. 8. […] The bronchoalveolar lavage fluid (BALF) from mice in the OAV-induced AHR experiment was examined forth IL-13 and IL-4 levels.
FIG. 9. […] The lungs from mice in the OAV-induced AHR experiment was examined for their IL-13 and IL-4 protein level.
FIG. 10. […] The lungs from mice in the OAV-induced AHR experiment was examined for their IL-13 and IL-4 mRNA levels.
For ovalbumin (OVA) challenge, mice were sensitized intraperitoneally (i.p.) with 50 μg of OVA with 2% alhydrogel adjuvant (InvivoGen). Mice were challenged three times with 50 μg of OVA on day 7 post-sensitization, either daily or every other day. Mice were sacrificed the day after the last OVA challenge. The scheme of the OT-1 adoptive transfer mouse model for examining the proliferation of CD8^+ T cells in adjuvanting OVA challenge is described in FIG. 13.
Upon exposure of the trachea, the lungs were lavaged twice with 1 mL of PBS supplemented with 2% fetal calf serum (FCS). BALF was pooled and bronchoalveolar (BAL) cells were pelleted by centrifugation and fixed onto cytospin slides. The slides were stained with Diff-Quik solution (Polysciences Inc) and BAL differential cell count was performed.
Using the Th2 OVA-induced AHR mouse model, we assessed the capability of selected compounds 8, 12, 18, and 27 in suppressing Th2 inflammation.

[2] = tested on: Splenocytes treated with αGalCer; test: Suppression of αGalCer-induced inflammation (splenocytes in vitro); type: cell-based, mouse; details: splenocytes treated concurrently with compound and αGalCer (FIG. 5)
Procedure: FIG. 5. […] Splenocytes were treated concurrently with the compounds of the invention and αGalCer to assess the suppressive function of compounds on αGalCer-induced inflammation, with several compounds showing prominent suppressive function.
as §1
Splenocytes were treated concurrently with the compounds of the invention and αGalCer to assess their ability to suppress αGalCer-induced inflammation.

[3] = tested on: bone marrow-derived macrophages (BMDM) treated with LPS; test: Suppression of LPS-induced inflammation in bone marrow-derived macrophages (BMDM in vitro); type: cell-based; details: BMDM (FIG. 2)
Description: Since macrophage is the major responder to LPS-induced inflammation, we assessed the capability of selected compounds to suppress LPS-induced inflammation in bone marrow-derived macrophages (BMDM).

[4] = tested on: BMDC from MyD88 deficient mice; test: MyD88 dependency of BMDC maturation; type: cell-based; details: BMDC from MyD88 deficient mice (FIG. 16)
Description: (§2) To determine whether the adjuvancy function of the representative compound 12 is MyD88-dependent or not, we performed experiments with immune cells isolated from MyD88 knocked-out (KO) mice. […] Data are dose-dependent and differences become more pronounced at the higher concentrations. […] Taken together, the results support that compound 12 adjuvancy function is MyD88-dependent.

ERK = test: Signal transduction by multiplex bead array: ERK phosphorylation; type: cell-based; details: comparing to LPS treatment alone (FIG. 4)
Description: (§3) FIG. 4. […] Compound 12, a representative compound of the invention, was examined in term of signal transduction to explore how the new compounds exert their suppressive effect, using the multiplex bead array.
(§4) Using the multiplex bead array, we examined how the new compounds might exert their suppressive effect in term of signal transduction.

[5] = tested on: LPS-induced inflammation in B6 mice; test: Suppression of LPS-induced inflammation in vivo; details: injected twice in a half hour time after LPS-treatment (FIG. 3)
Procedure: FIG. 3. […] The in vivo capability of compound 12 in suppressing LPS-induced inflammation in B6 mice was assessed as indicated in the scheme.
To determine the anti-inflammatory function in vivo, we assessed the capability of compound 12 in suppressing LPS-induced inflammation in B6 mice.

JNK = test: Signal transduction by multiplex bead array: JNK phosphorylation; type: cell-based; details: comparing to LPS treatment alone (FIG. 4)
Description: as §3, §4

[6] = tested on: splenocytes isolated from MyD88 KO mice; test: MyD88 dependency of cytokine induction (splenocytes from MyD88 KO mice in vitro); type: cell-based
Description: FIG. 14. […] The dependency of the compounds of the invention on functional MyD88 for biological function was examined using the representative compound 12, with immune cells isolated from MyD88 knocked-out mice. […] IL-4 was not detectable with compound 12 treatment, indicating a Th1-biased property.
as §2

STAT3 = test: Signal transduction by multiplex bead array: STAT3 phosphorylation; type: cell-based; details: comparing to LPS treatment alone (FIG. 4)
Description: as §3, §4

B6 mice = test: Adjuvancy function in vivo (serum IFNγ and IL-4 after injection)
Procedure: FIG. 11. […] The adjuvancy capability of the selected compounds 8, 12, 18, 27, and 29 in vivo was assessed by measuring the serum level of IFNγ and IL-4 induced after injecting them into B6 mice.
Besides assessing the ability of the new compounds to suppress inflammation, we also looked into their function to act as adjuvants, i.e. their ability to promote desirable immunological trends in the development of vaccines. We measured the in vivo adjuvancy capability of selected compounds 8, 12, 18, 27, and 29 in inducing IFNγ and IL-4 in B6 mice (FIG. 11).

p38 = test: Signal transduction by multiplex bead array: p38 phosphorylation; type: cell-based; details: comparing to LPS treatment alone (FIG. 4)
Description: as §3, §4

[7] = splenocytes treated with compound alone (FIG. 6)
[8] = bronchoalveolar lavage fluid (FIG. 8)
[9] = 2 hours after injection (FIG. 11)
[10] = 18 hours after injection (FIG. 11)

`CCCCCCCCCCCCNC(=O)C(COC1C(O)C(O)C(O)C2COC(=O)N21)NC(=O)CCCCCCCCCCC` (centres unmarked) [Compound 12] was tested, and the Th1/Th2 bias (Splenocytes; concluded from IFNγ and IL-4 secretion of splenocytes (FIG. 6)) was “Th1-biased”, the IFNγ secretion (Splenocytes; [7]) was “effective in promoting the productions of IFNγ” and the IL-4 secretion (Splenocytes; [7]) was “not IL-4”. The “IL-4 level in BALF” value [1, 8] was “significantly suppressed”, the “IL-13 level in BALF” value [1, 8] was “significantly suppressed” and the “IL-4 mRNA level in lungs” value ([1]; lung mRNA (FIG. 10)) was “could significantly suppress”. The “IL-13 mRNA level in lungs” value ([1]; lung mRNA (FIG. 10)) was “significantly suppressed”, the “IL-4 protein level in lungs” value ([1]; lung protein (FIG. 9)) was “significantly suppressed” and the “IL-13 protein level in lungs” value ([1]; lung protein (FIG. 9)) was “significantly suppressed”. The “suppressive function on αGalCer-induced inflammation” value [2] was “prominent inflammation-suppressing function”, the “suppression of LPS-induced inflammation” value [3] was “particularly efficient in suppressing LPS-induced inflammation” and the “suppression of IL-6” value ([3]; LPS-induced) was “significant suppression”. For the same compound, the “suppression of TNFα” value ([3]; LPS-induced) was “significant suppression”, the “maturation of BMDC induced by compound treatment” value [4] was “impeded” and the “phosphorylation of ERK” value (ERK) was “significantly reduced”. The “level of IL-6 in sera” value [5] was “significantly suppressed”, the “level of TNFα in sera” value [5] was “significantly suppressed” and the “phosphorylation of JNK” value (JNK) was “not JNK”. The “ability to induce IFNγ” value ([6]; splenocytes isolated from MyD88 KO mice (FIG. 14)) was “completely abrogated”, the IL-4 induction ([6]; splenocytes, MyD88 experiment (FIG. 14)) was “no IL-4 induction was observed” and the “phosphorylation of STAT3” value (STAT3) was “significant reduction of phosphorylation”. The “serum level of IFNγ induced” value (B6 mice; [9]) was “significant capability in inducing”, the “serum level of IL-4 induced” value (B6 mice; [9]) was “significant capability in inducing” and the “serum level of IFNγ induced” value (B6 mice; [10]) was “significant detectable level”. The “serum level of IL-4 induced” value (B6 mice; [10]) was “significant detectable level” and the “phosphorylation of p38” value (p38) was “significantly reduced”.
